Measurements published in patent US8410170B2, “Use of isothiocyanates compounds in treating prostatic diseases and skin cancer” (Wuxi JC Pharmaceutical Technology Co., Ltd., priority 2005, dated 2013).

How the values were obtained:
[1] = system: GSTP1; experiment: Western blot to detect GSTP1 protein in LNCaP cells; type: cell-based, human; conditions: LNCaP cells exposed 24 hrs
Protocol: Western blot to detect GSTP1 protein (FIG. 1): […] The cells were harvested, washed and total cellular proteins were extracted as described previously (Wang, […], et al. […] Cancer Res 61(20): 7544-51, 2001). Fifty μg cellular extracts were separated on a SDS-PAGE, electro-transferred to nitrocellulose filters, and immunoblotted initially with antibodies against GSTP1. The same membranes were stripped and re-probed with β-actin for loading control. The result was recorded by ECL films.

[2] = system: Sp1; experiment: Western blot to detect Sp1 in LNCaP cells; type: cell-based, human; conditions: 24 hrs
Protocol: (§1) The cells were harvested, washed and total cellular proteins were extracted as described previously (as Example 2). Fifty μg proteins were then subjected to electrophoresis in SDS-PAGE, electro-transferred to nitrocellulose filters, and immunoblotted initially with antibodies against AR, Sp1, and PSA. The same membranes were stripped and re-probed with β-actin for loading control. The result was recorded by ECL films.

[3] = system: PSA; experiment: Western blot to detect PSA in LNCaP cells; type: cell-based, human; conditions: 24 hrs
Protocol: as §1

[4] = system: human prostate cancer cell line LNCaP; experiment: MTT and SRB cell growth assay, LNCaP; type: cell-based; conditions: LNCaP; for IC50: Homo sapiens, MTT and SRB, read-out: IC50, growth inhibition
Protocol: MTT and SRB method as described in the reference (Kreis, Budman et al. 1997). Briefly, human prostate cancer cells grown exponentially were aliquoted into 96-well plates at a density of 5000 cells/200 μl per well. Twenty-four hrs after the incubation, the cells were exposed for three or seven days to serial dilutions of indicated isothiocyanate. After the incubation, 100 μl of the medium was removed from each of the wells and 50 μl solution of 3-(4,5-dimethyl-thiazol-2-yl)-2,5-diphenyltetrazolium bromide (MTT) was added, the cells were incubated for an additional 4 hrs and then 200 μl of 0.04 N HCl-isopropanol was added to each well to dissolve the black formazan precipitates. The absorbance was measured at wavelength 540 nm. For SRB method, remove the medium after 72 hrs. The cells on 96-well dishes were fixed with 10% trichloride acetic acid for 1 hr, air-dried for 24 hrs. The cells were then stained with 50 μl of SRB (sulforhodamine B) for […]. After extensive washes with 1% acetic acid for 5 times, air-dried, the purple protein-SRB complex was dissolved in 200 μl 10 mM Tris-HCl buffer (pH 10.0), and the absorbance was measured at the wavelength of 540 and 630 nm. The percent of cell survival (T/C%) were calculated based on the results of test groups to that of the control group. The semi-exponential curves of the percent of cell survival (T/C%) to the drug concentrations (FIG. 8) and IC50 were obtained by using Sigma-plot program.

[5] = system: transcription factor Sp1; experiment: Sp1-luc luciferase activity assay in transfected LNCaP AD cells; type: cell-based, human; conditions: 24 hrs
Source text: The Sp1-luc and mtSp1-luc contain three tandem repeats of consensus Sp1 sites driving the luciferase gene and its mutant. […] Effectene transfection reagent and luciferase assay kit were acquired from Qiagen (Valencia, Calif., USA) and Promega (Madison, Wis., USA). Reagents for protein electrophoresis were purchased from Bio-Rad company (USA). The other chemicals were purchased from Sigma (St. Louis, Mo.) otherwise as indicated. […] (Gao, M., Ossowski, L., and Ferrari, A. C. Activation of Rb and decline in androgen receptor protein precede retinoic acid-induced apoptosis in androgen-dependent LNCaP cells and their androgen-independent derivative. J Cell Physiol, 179: 336-346, 1999). The AD and AI cells were maintained in RPMI-1640 with 10% fetal bovine serum (FBS) and charcoal stripped fetal bovine serum, penicillin-streptomycin for incubation at 5% CO2 and 37° C. respectively. […] After incubation for 24 hrs at 5% CO2 and 37° C., the cells were transfected with 1 μg/dish of SP1-luciferase gene (Sp1-luc), or its mutant mtSp1-luc using Effectene (Qiagen, Valencia, Calif.) as the transfection reagent. […] The cells were collected, washed, lysed, and the lysates were used for luciferase activity assay using Promega luciferase assay system.

[6] = system: LNCaP AD; experiment: MTT growth inhibition, hormone dependent LNCaP AD; type: cell-based; conditions: Homo sapiens, 168 h; LNCaP AD, seven days, MTT; read-out: IC50, growth inhibition
Source text: (§2) The human prostate cancer cell line LNCaP AD was purchased from the American Type Culture Collection. LNCaP AI cell line was derived from LNCaP cells using a method described previously by Gao et al. (Gao, M., Ossowski, L., and Ferrari, A. C. Activation of Rb and decline in androgen receptor protein precede retinoic acid-induced apoptosis in androgen-dependent LNCaP cells and their androgen-independent derivative. J Cell Physiol, 179: 336-346, 1999). The AD and AI cells were maintained in RPMI-1640 with 10% fetal bovine serum (FBS) and charcoal stripped fetal bovine serum, penicillin-streptomycin for incubation at 5% CO2 and 37° C. respectively.
(§3) MTT: MTT and SRB method were used to determine the effects of various isothiocyanates on cell growth as described previously (Kreis, Budman et al, 1997). Briefly, human prostate cancer cell line LNCaP grown exponentially were aliquoted into 96-well plates at a density of 2500 cells/200 μl per well. Twenty-four hrs after the incubation, the cells were exposed for seven days to serial dilutions of indicated isothiocyanate or paclitaxel. […] The absorbance was measured at wavelength 540 nm. The percent of cell survival (T/C%) were calculated based on the results of test groups to that of the control group. […]

[7] = system: LNCaP AI; experiment: MTT growth inhibition, hormone independent LNCaP AI; type: cell-based; conditions: Homo sapiens, 168 h; LNCaP AI, seven days, MTT; read-out: IC50, growth inhibition
Source text: as §2, §3

Row | SMILES | expression of GSTP1 (Western blot) [1] | expression of Sp1 (Western blot) [2] | expression of PSA (Western blot) [3] | Percent of Cell Survival (T/C %) ([4]; 0.0390 μM) | Percent of Cell Survival (T/C %) ([4]; 0.0780 μM) | Percent of Cell Survival (T/C %) ([4]; 0.1562 μM) | Percent of Cell Survival (T/C %) ([4]; 0.3125 μM) | Percent of Cell Survival (T/C %) ([4]; 0.6250 μM) | Percent of Cell Survival (T/C %) ([4]; 1.2500 μM) | Percent of Cell Survival (T/C %) ([4]; 2.5000 μM) | Percent of Cell Survival (T/C %) ([4]; 5.0000 μM) | Percent of Cell Survival (T/C %) ([4]; 10.0000 μM) | Percent of Cell Survival (T/C %) ([4]; 20.0000 μM) | IC50 [4] | luciferase activity of Sp1-luc transfected gene [5] | IC50 [6] | IC50 [7]
1 | O=S(=O)(O)c1ccc(N=C=S)cc1 [SPITC, 4-sulfophenylisothiocyanate] | effectively induce | no effect | no effect | 99.54% | 101.43% | 101.43% | 99.66% | 98.26% | 101.56% | 104.37% | 100.60% | 101.33% | 99.88% | – | – | – | –
2 | S=C=NCc1ccccc1 [BITC, benzyl isothiocyanate] | effectively induce | significantly inhibited | significantly inhibited | 94.09% | 95.64% | 97.91% | 95.82% | 71.25% | 27.95% | 14.83% | 5.07% | 0.88% | 0.94% | 800 to 1500 nM | – | – | –
3 | CC(/C=C/C(=O)NO)=C\[C@@H](C)C(=O)c1ccc(N(C)C)cc1 [TSA, trichostatin A, reference compound] | – | – | – | – | – | – | – | – | – | – | – | – | – | – | significantly stimulated | – | –
4 | C=CCN=C=S [AITC, allyl isothiocyanate] | effectively induce | minimal activities | minimal activities | 98.84% | 98.92% | 98.26% | 98.55% | 97.10% | 99.49% | 83.95% | 47.60% | 41.01% | 38.69% | ~10000 nM | – | – | –
5 | CC(=O)O[C@H]1C(=O)[C@@]2(C)[C@H]([C@H](OC(=O)c3ccccc3)[C@]3(O)C[C@H](OC(=O)[C@H](O)[C@@H](NC(=O)c4ccccc4)c4ccccc4)C(C)=C1C3(C)C)[C@]1(OC(C)=O)CO[C@@H]1C[C@@H]2O [paclitaxel, reference compound] | – | – | – | – | – | – | – | – | – | – | – | – | – | – | – | 0.01 nM | 0.6 nM
